The results in this text go back to PubChem BioAssay (NCI).

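Five compound concentrations were applied to cells in 96-well plates for 48 hours; endpoints were derived by simple linear interpolation of the resulting dose-response curve. TGI denotes the concentration required for complete inhibition of growth.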

Among the test systems are HOP-18 NSCLC; LXFL 529 NSCLC; RXF-631 renal; XF 498 CNS; P388 leukemia; P388/ADR leukemia; SN12K1 renal; DMS 114 small cell lung.
Common to all, as to assay: NCI tumour cell line growth inhibition, 48 h

Consider `C[n+]1c2ccccc2c(CNC(CS)C(=O)O)c2ccccc21` (stereo not given), for which the TGI in the test with HOP-18 NSCLC is more than 100 µM; with LXFL 529 NSCLC it was more than 100 µM; with RXF-631 renal it was 70.4 µM; with XF 498 CNS it was 40.3 µM.

For the molecule `O=C(NC(Cc1ccc(I)cc1)C(=O)O)c1ccc(Cl)cc1` (stereo not given), the TGI with HOP-18 NSCLC, with P388 leukemia, with P388/ADR leukemia, in the test on SN12K1 renal and with XF 498 CNS was more than 100 µM throughout.

In the case of `N=C(N)SCc1cccc([N+](=O)[O-])c1`, the TGI in the test with DMS 114 small cell lung came to 90.7 µM; in the test with HOP-18 NSCLC, 89.1 µM; in the test with P388 leukemia, 33.6 µM; with P388/ADR leukemia, 41.2 µM; with SN12K1 renal, 98.6 µM; in the test on XF 498 CNS it was 71.8 µM.

Regarding `COc1cc([N+](=O)[O-])ccc1NC(=O)c1cccc([N+](=O)[O-])c1O`, the TGI with DMS 114 small cell lung is more than 100 µM; in the test with HOP-18 NSCLC, 61 µM; with LXFL 529 NSCLC, more than 100 µM; in the test with RXF-631 renal, more than 100 µM.

Turning to `CNC(C)Cc1ccccc1OC` (stereo not given), the TGI with DMS 114 small cell lung, in the test with HOP-18 NSCLC, in the test with LXFL 529 NSCLC, in the test with RXF-631 renal and with XF 498 CNS was more than 100 µM in each case.

As for `O=C1OC2(OC2c2ccc(Cl)cc2)c2ccccc21` (stereo not given), the results for the TGI in the test on DMS 114 small cell lung, in the test with LXFL 529 NSCLC and in the test on XF 498 CNS were more than 100 µM, 78.2 µM and more than 100 µM, respectively.

As to `Cc1c2cc[n+](C)cc2c(C)c2c1oc1ccccc12`, the TGI in the test on DMS 114 small cell lung is 7.86 µM; in the test with HOP-18 NSCLC, more than 63.7 µM; with LXFL 529 NSCLC, 15.8 µM.
